Results reported in PubChem BioAssay (NCI).
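Test compounds were applied to cells in 96-well plates for 48 hours at 5 doses. Abbreviation: GI50, concentration required for 50% inhibition of growth. TGI: total growth inhibition.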

Key:
Experiment in all cases: inhibition of tumour cell growth, NCI panel, 48 h
[1] = tested on: SF-539 CNS
[2] = tested on: UACC-62 melanoma
[3] = tested on: MDA-MB-468 breast
[4] = tested on: MALME-3M melanoma
[5] = tested on: PC-3 prostate
[6] = tested on: OVCAR-3 ovarian
[7] = tested on: A549 NSCLC
[8] = tested on: CAKI-1 renal
[9] = tested on: TK-10 renal
[10] = tested on: NCI-H226 lung
[11] = tested on: MCF7 breast
[12] = tested on: SF-295 CNS
[13] = tested on: SK-MEL-28 melanoma
[14] = tested on: HL-60(TB) leukemia
[15] = tested on: HT29 colon
[16] = tested on: K-562 leukemia
[17] = tested on: NCI-H460 lung
[18] = tested on: COLO 205 colon
[19] = tested on: LOX IMVI melanoma
[20] = tested on: MOLT-4 leukemia
[21] = tested on: NCI-H23 lung
[22] = tested on: SR leukemia
[23] = tested on: MDA-MB-435
[24] = tested on: EKVX NSCLC
[25] = tested on: HCT-116 colon
[26] = tested on: ACHN renal
[27] = tested on: SN12C renal
[28] = tested on: MDA-MB-231 breast
[29] = tested on: SK-OV-3 ovarian
[30] = tested on: T-47D breast
[31] = tested on: SK-MEL-5 melanoma
[32] = tested on: HOP-62 NSCLC
[33] = tested on: DU-145 prostate
[34] = tested on: RPMI-8226 leukemia
[35] = tested on: SNB-75 CNS
[36] = tested on: HOP-92 NSCLC
[37] = tested on: 786-0 renal
[38] = tested on: A498 renal
[39] = tested on: IGROV1 ovarian
[40] = tested on: SF-268 CNS
[41] = tested on: HS 578T breast
[42] = tested on: U251 CNS
[43] = tested on: OVCAR-5 ovarian
[44] = tested on: OVCAR-8 ovarian
[45] = tested on: HCC-2998 colon
[46] = tested on: SNB-19 CNS
[47] = tested on: M14 melanoma
[48] = tested on: RXF 393 renal
[49] = tested on: SW-620 colon
[50] = tested on: NCI-H522 lung
[51] = tested on: UACC-257 melanoma
[52] = tested on: KM12 colon
[53] = tested on: OVCAR-4 ovarian
[54] = tested on: NCI/ADR-RES ovarian
[55] = tested on: CCRF-CEM leukemia
[56] = tested on: BT-549 breast
[57] = tested on: UO-31 renal
[58] = tested on: SK-MEL-2 melanoma
[59] = tested on: HCT-15 colon

Work on `O=C(c1ccc(Cl)cc1)C1[C@H](c2ccccc2Cl)[C@@H](c2ccccc2)NC12C(=O)Nc1ccccc12` (some centres undefined) yielded a GI50 [1] of 18.1 µM, a TGI [1] of 36 µM and a GI50 [2] of 12.6 µM. For the same compound, the TGI [2] was 27.8 µM, the GI50 [3] was 3.54 µM and the TGI [3] was 20.6 µM. For the same compound, the GI50 [4] was 15.7 µM, the TGI [4] was 34.8 µM and the GI50 [5] was 14.3 µM. For the same compound, the TGI [5] was 72.9 µM, the GI50 [6] was 12.5 µM and the TGI [6] was 35 µM. It also gave a GI50 [7] of 24.9 µM, a TGI [7] of over 100 µM and a GI50 [8] of 18.9 µM. For the same compound, the TGI [8] was over 100 µM, the GI50 [9] was 23.4 µM and the TGI [9] was 87.9 µM. It also gave a GI50 [10] of 17.6 µM, a TGI [10] of 47.4 µM and a GI50 [11] of 16.2 µM. It also gave a TGI [11] of 58.4 µM, a GI50 [12] of 18.2 µM and a TGI [12] of 49.7 µM. The GI50 [13] was 18.2 µM, the TGI [13] was 40.3 µM and the GI50 [14] was 17 µM. It also gave a TGI [14] of 58.8 µM, a GI50 [15] of 14.6 µM and a TGI [15] of 35 µM. The GI50 [16] was 21.7 µM, the TGI [16] was over 100 µM and the GI50 [17] was 17.8 µM. For the same compound, the TGI [17] was 36.8 µM, the GI50 [18] was 16.3 µM and the TGI [18] was 29.9 µM. For the same compound, the GI50 [19] was 13.2 µM, the TGI [19] was 27.3 µM and the GI50 [20] was 20.3 µM. It also gave a TGI [20] of 74.9 µM, a GI50 [21] of 18.3 µM and a TGI [21] of 52 µM. The GI50 [22] was 14.7 µM, the TGI [22] was 53.5 µM and the GI50 [23] was 12.7 µM. For the same compound, the TGI [23] was 28.8 µM, the GI50 [24] was 23.7 µM and the TGI [24] was over 100 µM. It also gave a GI50 [25] of 14.5 µM, a TGI [25] of 29.6 µM and a GI50 [26] of 20.9 µM. It also gave a TGI [26] of 71.8 µM, a GI50 [27] of 13.7 µM and a TGI [27] of 28.4 µM. The GI50 [28] was 15 µM, the TGI [28] was 40.8 µM and the GI50 [29] was 20.8 µM. It also gave a TGI [29] of 82.7 µM, a GI50 [30] of 18.3 µM and a TGI [30] of 74.1 µM. For the same compound, the GI50 [31] was 15.2 µM, the TGI [31] was 29.3 µM and the GI50 [32] was 17.4 µM. For the same compound, the TGI [32] was 61.8 µM, the GI50 [33] was 17.1 µM and the TGI [33] was 51.2 µM. The GI50 [34] was 25.7 µM, the TGI [34] was 91.3 µM and the GI50 [35] was 11 µM. The TGI [35] was 71.3 µM, the GI50 [36] was 17.7 µM and the TGI [36] was 58.4 µM. For the same compound, the GI50 [37] was 20.5 µM, the TGI [37] was 51.6 µM and the GI50 [38] was 20.8 µM. For the same compound, the TGI [38] was 60.1 µM, the GI50 [39] was 26.1 µM and the TGI [39] was over 100 µM. The GI50 [40] was 23.2 µM, the TGI [40] was over 100 µM and the GI50 [41] was 12 µM. It also gave a TGI [41] of 34.6 µM, a GI50 [42] of 23 µM and a TGI [42] of 64.8 µM. For the same compound, the GI50 [43] was 18.5 µM, the TGI [43] was 66.7 µM and the GI50 [44] was 22 µM. The TGI [44] was 72.3 µM, the GI50 [45] was 19.1 µM and the TGI [45] was 51.7 µM. The GI50 [46] was 30 µM, the TGI [46] was over 100 µM and the GI50 [47] was 16.3 µM. It also gave a TGI [47] of 43.1 µM, a GI50 [48] of 13.2 µM and a TGI [48] of 34.3 µM. It also gave a GI50 [49] of 17.6 µM, a TGI [49] of 51.2 µM and a GI50 [50] of 15.2 µM. It also gave a TGI [50] of 46.3 µM, a GI50 [51] of 23.3 µM and a TGI [51] of 79 µM. The GI50 [52] was 20.2 µM, the TGI [52] was 58.1 µM and the GI50 [53] was 25.6 µM. The TGI [53] was over 100 µM, the GI50 [54] was 14.9 µM and the TGI [54] was 35.8 µM. The GI50 [55] was 27.2 µM, the TGI [55] was 95 µM and the GI50 [56] was 16.2 µM. It also gave a TGI [56] of 48.5 µM, a GI50 [57] of 16.4 µM and a TGI [57] of over 100 µM. The GI50 [58] was 14.8 µM, the TGI [58] was 32.1 µM and the GI50 [59] was 25.3 µM. For the same compound, the TGI [59] was over 100 µM.
`COc1ccc(NC(=O)Nc2nc3ccc([N+](=O)[O-])cc3s2)cc1` gave a GI50 [1] of 2.41 µM, a TGI [1] of 5.95 µM and a GI50 [2] of 2.63 µM. It also gave a TGI [2] of over 100 µM, a GI50 [3] of 1.66 µM and a TGI [3] of 4.17 µM. The GI50 [4] was 2.19 µM, the TGI [4] was 6.21 µM and the GI50 [5] was 2.15 µM. The TGI [5] was 8.35 µM, the GI50 [6] was 2.15 µM and the TGI [6] was 5.36 µM. For the same compound, the GI50 [7] was 2.23 µM, the TGI [7] was 6.22 µM and the GI50 [8] was 2.08 µM. The TGI [8] was 5.01 µM, the GI50 [9] was 3.66 µM and the TGI [9] was 10.7 µM. It also gave a GI50 [10] of 2.31 µM, a TGI [10] of 6.63 µM and a GI50 [11] of 2.2 µM. It also gave a TGI [11] of 6.31 µM, a GI50 [12] of 1.9 µM and a TGI [12] of 4.3 µM. It also gave a GI50 [13] of 3.09 µM, a TGI [13] of 11.9 µM and a GI50 [14] of 2.1 µM. It also gave a TGI [14] of 5.84 µM, a GI50 [15] of 3.34 µM and a TGI [15] of 14.8 µM. The GI50 [16] was 2.71 µM, the TGI [16] was 13 µM and the GI50 [17] was 2.37 µM. It also gave a TGI [17] of 5.79 µM, a GI50 [19] of 2.42 µM and a TGI [19] of 6.18 µM. For the same compound, the GI50 [20] was 2.71 µM, the TGI [20] was 10.7 µM and the GI50 [21] was 2.22 µM. It also gave a TGI [21] of 6.64 µM, a GI50 [22] of 2.52 µM and a TGI [22] of 12.8 µM. For the same compound, the GI50 [23] was 1.92 µM, the TGI [23] was 5.68 µM and the GI50 [24] was 2.66 µM. For the same compound, the TGI [24] was 7.96 µM, the GI50 [25] was 2.52 µM and the TGI [25] was 7.67 µM. It also gave a GI50 [26] of 2.48 µM, a TGI [26] of 7.09 µM and a GI50 [27] of 2.66 µM. It also gave a TGI [27] of 8.64 µM, a GI50 [28] of 2.76 µM and a TGI [28] of 7.86 µM. It also gave a GI50 [29] of 2.37 µM, a TGI [29] of 7.09 µM and a GI50 [30] of 1.67 µM. For the same compound, the TGI [30] was 6.66 µM, the GI50 [32] was 2.92 µM and the TGI [32] was 10.7 µM. For the same compound, the GI50 [33] was 3.02 µM, the TGI [33] was 11.4 µM and the GI50 [34] was 1.83 µM. It also gave a TGI [34] of 5.97 µM, a GI50 [36] of 1.92 µM and a TGI [36] of 5.97 µM. It also gave a GI50 [37] of 2.89 µM, a TGI [37] of 11.6 µM and a GI50 [38] of 1.66 µM. For the same compound, the TGI [38] was 4.83 µM, the GI50 [39] was 3.37 µM and the TGI [39] was 15.3 µM. The GI50 [40] was 2.91 µM, the TGI [40] was 16.2 µM and the GI50 [41] was 2.81 µM. The TGI [41] was 8.21 µM, the GI50 [42] was 2.24 µM and the TGI [42] was 5.76 µM. For the same compound, the GI50 [43] was 2.8 µM, the TGI [43] was 9.95 µM and the GI50 [44] was 3.18 µM. It also gave a TGI [44] of 13.7 µM, a GI50 [45] of 2.72 µM and a TGI [45] of 9.54 µM. It also gave a GI50 [46] of 2.85 µM, a TGI [46] of 16.8 µM and a GI50 [47] of 2.73 µM. For the same compound, the TGI [47] was 9.02 µM, the GI50 [48] was 2.54 µM and the TGI [48] was 7.24 µM. The GI50 [49] was 3.07 µM, the TGI [49] was 13.8 µM and the GI50 [50] was 1.72 µM. It also gave a TGI [50] of 5.94 µM, a GI50 [52] of 2.22 µM and a TGI [52] of 5.92 µM. It also gave a GI50 [53] of 2.84 µM, a TGI [53] of 12.6 µM and a GI50 [54] of 2.62 µM. The TGI [54] was 8.16 µM, the GI50 [55] was 2.27 µM and the TGI [55] was 7.69 µM. The GI50 [57] was 2.51 µM, the TGI [57] was 8.98 µM and the GI50 [59] was 2.68 µM. The TGI [59] was 10.4 µM.
